Biological target: T1, glucagon receptor (Homo sapiens, UniProt P47871)
T1 construct: expressed in transfected cells; host or cells: HEK293
Test: Functional assay-cAMP synthesis, luciferase reporter in HEK293 cells, glucagon receptor
Format: cell-based
Set-up: % activity: concentration or dose not given beside the values
Settings: Table 26, glucagon receptor

T1 sequence (P47871 26-477): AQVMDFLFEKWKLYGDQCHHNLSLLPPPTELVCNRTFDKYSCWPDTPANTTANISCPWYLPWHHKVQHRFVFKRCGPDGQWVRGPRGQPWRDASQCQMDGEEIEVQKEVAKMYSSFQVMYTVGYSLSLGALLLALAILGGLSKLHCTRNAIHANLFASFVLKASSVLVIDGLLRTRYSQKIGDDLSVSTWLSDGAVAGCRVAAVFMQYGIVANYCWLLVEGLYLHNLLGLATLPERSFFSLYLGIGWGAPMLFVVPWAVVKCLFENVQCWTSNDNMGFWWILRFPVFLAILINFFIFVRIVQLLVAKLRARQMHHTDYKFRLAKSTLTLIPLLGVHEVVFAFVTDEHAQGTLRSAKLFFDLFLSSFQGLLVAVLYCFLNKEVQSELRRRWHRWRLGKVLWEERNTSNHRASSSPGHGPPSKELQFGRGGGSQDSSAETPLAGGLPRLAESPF

In order of rising “% activity” value:
1. CCCC[C@H](NC(=O)[C@H](CC(C)C)NC(=O)[C@H](Cc1c[nH]c2ccccc12)NC(=O)[C@H](C)NC(=O)[C@@H](NC(=O)[C@H](Cc1ccccc1)NC(=O)[C@H](CCC(=O)O)NC(=O)[C@H](C)NC(=O)[C@H](C)NC(=O)[C@H](CCCNC(=N)N)NC(=O)[C@H](CCCNC(=N)N)NC(=O)[C@@H](NC(=O)[C@H](CC(=O)O)NC(=O)[C@H](CC(C)C)NC(=O)[C@H](Cc1ccc(O)cc1)NC(=O)[C@H](CCCCN)NC(=O)[C@H](CO)NC(=O)[C@H](Cc1ccc(O)cc1)NC(=O)[C@H](CC(=O)O)NC(=O)[C@H](CO)NC(=O)[C@@H](NC(=O)[C@H](Cc1ccccc1)NC(=O)[C@@H](NC(=O)CNC(=O)[C@H](CNC(N)=O)NC(=O)[C@H](CO)NC(=O)[C@@H](N)Cc1c[nH]cn1)[C@@H](C)O)[C@@H](C)O)[C@@H](C)O)C(C)C)C(=O)N[C@@H](CC(=O)O)C(=O)N[C@@H](CCC(=O)O)C(=O)O [SEQ ID NO: 596]  13%
2. CSCC[C@H](NC(=O)[C@H](CC(C)C)NC(=O)[C@H](Cc1c[nH]c2ccccc12)NC(=O)[C@H](C)NC(=O)[C@@H](NC(=O)[C@H](Cc1ccccc1)NC(=O)[C@H](CC(=O)O)NC(=O)[C@H](C)NC(=O)[C@H](C)NC(=O)[C@H](CCCNC(=N)N)NC(=O)[C@H](CCCNC(=N)N)NC(=O)C(C)(C)NC(=O)[C@H](CC(=O)O)NC(=O)[C@H](CC(C)C)NC(=O)[C@H](Cc1ccc(O)cc1)NC(=O)[C@H](CCCCN)NC(=O)[C@H](CO)NC(=O)[C@H](Cc1ccc(O)cc1)NC(=O)[C@H](CC(=O)O)NC(=O)[C@H](CO)NC(=O)[C@@H](NC(=O)[C@H](Cc1ccccc1)NC(=O)[C@@H](NC(=O)CNC(=O)[C@H](CCC(N)=O)NC(=O)[C@H](CO)NC(=O)[C@@H](N)Cc1c[nH]cn1)[C@@H](C)O)[C@@H](C)O)C(C)C)C(=O)N[C@@H](CC(=O)O)C(=O)N[C@@H](CCC(=O)O)C(=O)O [SEQ ID NO: 600]  15%
3. CCCC[C@H](NC(=O)[C@H](CC(C)C)NC(=O)[C@H](Cc1c[nH]c2ccccc12)NC(=O)[C@H](C)NC(=O)[C@@H](NC(=O)[C@H](Cc1ccccc1)NC(=O)[C@H](CCC(=O)O)NC(=O)[C@H](C)NC(=O)[C@H](C)NC(=O)[C@H](CCCNC(=N)N)NC(=O)[C@H](CCCNC(=N)N)NC(=O)[C@@H](NC(=O)[C@H](CC(=O)O)NC(=O)[C@H](CC(C)C)NC(=O)[C@H](Cc1ccc(O)cc1)NC(=O)[C@H](CCCCN)NC(=O)[C@H](CO)NC(=O)[C@H](Cc1ccc(O)cc1)NC(=O)[C@H](CC(=O)O)NC(=O)[C@H](CO)NC(=O)[C@@H](NC(=O)[C@H](Cc1ccccc1)NC(=O)[C@@H](NC(=O)CNC(=O)[C@H](CCNC(C)=O)NC(=O)[C@H](CO)NC(=O)[C@@H](N)Cc1c[nH]cn1)[C@@H](C)O)[C@@H](C)O)[C@@H](C)O)C(C)C)C(=O)N[C@@H](CC(=O)O)C(=O)N[C@@H](CCC(=O)O)C(=O)O [SEQ ID NO: 595]  19%
4. CCCC[C@H](NC(=O)[C@H](CC(C)C)NC(=O)[C@H](Cc1c[nH]c2ccccc12)NC(=O)[C@H](C)NC(=O)[C@@H](NC(=O)[C@H](Cc1ccccc1)NC(=O)[C@H](CCC(=O)O)NC(=O)[C@H](C)NC(=O)[C@H](C)NC(=O)[C@H](CCCNC(=N)N)NC(=O)[C@H](CCCNC(=N)N)NC(=O)[C@@H](NC(=O)[C@H](CC(=O)O)NC(=O)[C@H](CC(C)C)NC(=O)[C@H](Cc1ccc(O)cc1)NC(=O)[C@H](CCCCN)NC(=O)[C@H](CO)NC(=O)[C@H](Cc1ccc(O)cc1)NC(=O)[C@H](CC(=O)O)NC(=O)[C@H](CO)NC(=O)[C@@H](NC(=O)[C@H](Cc1ccccc1)NC(=O)[C@@H](NC(=O)CNC(=O)[C@H](CCC(N)=O)NC(=O)[C@H](CO)NC(=O)[C@@H](N)Cc1c[nH]cn1)[C@@H](C)O)[C@@H](C)O)[C@@H](C)O)C(C)C)C(=O)N[C@@H](CC(=O)O)C(=O)N[C@@H](CCC(=O)O)C(=O)O [SEQ ID NO: 593]  25%
